Measurements from US20160207950A1, “ORGA[…]-2-CYANO-1-HYDROXYPROPAN-2-YL FOR USE AS ANTHELMINTICS” (UNIVERSITÄT ZÜRICH, priority 2013, published 2016).
Where two headings read alike, the source gives them in different places.

Legend:
Haemonchus Contortus = experiment: Activity in vitro against Haemonchus contortus (egg hatch / larval development)
Experimental: (§1) Activity in Vitro against Haemonchus contortus & Trichostrongylus colubriformis (Gastrointestinal nematodes).
(§2) Freshly harvested and cleaned nematode eggs are used to seed a suitably formatted microplate containing the test substances to be evaluated for antiparasitic activity. Each compound is tested by serial dilution in order to determine its MED. The test compounds are diluted in nutritive medium allowing the full development of eggs through to 3rd instar larvae. The plates are incubated for 6 days at 28° C. and 60% relative humidity (RH). Egg-hatching and ensuing larval development are recorded to identify a possible nematocidal activity. Efficacy is expressed in percent reduced egg hatch, reduced development of L3, or paralysis & death of larvae of all stages.

[1] = system: Trychostrongylus colubriformis; experiment: Activity in vitro against Trichostrongylus colubriformis (egg hatch / larval development)
Experimental: as §1, §2

[2] = system: human cervical cancer HeLa; experiment: fluorometric cell viability assay (Resazurin), toxicity towards HeLa; type: cell-based; settings: 2 days treatment
Experimental: Cell Culture: Human cervical carcinoma cells (HeLa) were cultured in DMEM (Gibco) supplemented with 5% fetal calf serum (FCS, Gibco), 100 U/ml penicillin, 100 μg ml streptomycin at 37° C. and 5% CO2. The normal human fetal lung fibroblast MRC-5 cell line was maintained in F-10 medium (Gibco) supplemented with 10% FCS (Gibco), 200 mmol/l L-Glutamine, 100 U/ml penicillin, and 100 μg/ml streptomycin at 37° C. and 5% CO2. Toestablish the anticancer potential of the compounds they were tested in one cell line, namely HeLa by a fluorometric cell viability assay using Resazurin (Promocell GmbH). Compounds showing cytotoxicity were then tested on normal MRC-5 cells. 1 day before treatment, cells were plated in triplicates in 96-well plates at a density of 4×10^3 cells/well in 100 μl for HeLa and 7×10^3 cells/well for MRC-5 cells. Cells were treated with increasing concentrations of the compounds for 2 days. After 2 days, medium and drug were removed and […] fresh medium containing Resazurin (0.2 mg/ml final concentration) were added. After 4 h of incubation at 37° C., the highly red fluorescent dye resorufin's fluorescence was quantified at 590 nm emission with 540 nm excitation wavelength in the SpectraMax M5 microplate Reader. […]

C. elegans = C. elegans movement inhibition assay
Experimental: C. elegans movement inhibition assay: Asynchronous N2 C. elegans worms (Bristol) were maintained on nematode growth medium (NGM) agar, seeded with a lawn on OP50 E coli as a food-source, according to standard protocol (Maintenance of C. elegans; Stiernagle, T., Ed.; WormBook, 2006.). Worms were harvested from NGM plates by washing with M9 buffer (42 mmol/l Na2HPO4, 22 mmol/l KH2PO4, 86 mmol/l NaCl and 1 mmol/l MgSO4), aspiration and collection in a 10 mL tube (Falcon). The average number of worms in 5 μL of this suspension was calculated by transferring 4×5 μL aliquots to a glass slide (Menzel Glaser), and worms were enumerated under a compound microscope (Olympus CH30). To adjust the suspension to contain 1 worm per μL, M9 buffer was either added or removed after pelleting worms at 600× g for 30 sec.
Dilution of test compounds, Zolvix (monepantel) and DMSO for working stock solutions and 96 well plate set-up for liquid screen: A volume of 70 μL of M9 buffer was added to each well in a 96-well plate, using a multichannel pipettor. A volume of 20 μL of worm suspension was added to each well using a single-channel pipettor, with a trimmed pipette tip (increased aperture to minimize damage to worms). […]
Quantitative worm mobility scoring: Immobile worms were counted as a percentage of total worms in each well using an Olympus SZ30 dissecting microscope. […]

Substance | Activity against Haemonchus Contortus at 10 [mg/mL] (Haemonchus Contortus; listed as compound 1) | Activity against Haemonchus Contortus at 10 [mg/mL] (Haemonchus Contortus; listed as drawing 26) | Activity against Trychostrongylus colubriformis at 10 [mg/mL] ([1]; listed as compound 1) | Activity against Trychostrongylus colubriformis at 10 [mg/mL] ([1]; listed as drawing 26) | IC50 [2] | Number of L3 H. contortus/100 μM (H. contortus) | mobility of the C. elegans worms (in words) (C. elegans; 50 μM) | Mobility in C. elegans at 50 μM (C. elegans; 24 h incubation) | efficacy against dirofilaria immitis (in words) (Dirofilaria immitis) | Activity against Dirofilaria immitis at 10 [mg/mL] (Dirofilaria immitis; 10 mg/mL) | Activity against Haemonchus Contortus at 10 [mg/mL] (Haemonchus Contortus) | Activity against Trychostrongylus colubriformis at 10 [mg/mL] [1]
N-(2-cyano-1-(5-cyano-2-(trifluoromethyl)phenoxy)propan-2-yl)ferroceneamide [Compound 1] | up to 69% | 69% | up to 69% | 68% | 93.2 µM | >100 | significantly reduced | 2% | – | – | – | –
N-(2-cyano-1-(5-cyano-2-(trifluoromethyl)phenoxy)propan-2-yl)ruthenoceneamide [Compound 1a] | – | – | – | – | > 100 µM | – | – | – | moderate efficacy | 30% | 0% | 0%
